Publication PMC5355295, “A new semisynthetic cardenolide analog 3β-[2-(1-amantadine)- 1-on-ethylamine]-digitoxigenin (AMANTADIG) affects G2/M cell cycle arrest and miRNA expression profiles and enhances proapoptotic survivin-2B expression in renal cell carcinoma cell lines” (Oncotarget, 2017)

Molecular target: T1, Na+/K+-ATPase α1,2,3 subunit
T1 construct: gene ATP1A1; Na+/K+-ATPase α1,2,3 subunit of porcine cortex (Sigma)
Experiment: ATPase activity, malachite green Pi release, […] min pre-incubation
Format: biochemical, Sus scrofa

CO[C@H]1[C@@H](O)C[C@H](O[C@H]2[C@@H](O)C[C@H](O[C@H]3[C@@H](O)C[C@H](O[C@H]4CC[C@@]5(C)[C@H](CC[C@@H]6[C@@H]5C[C@@H](O)[C@]5(C)[C@@H](C7=CC(=O)OC7)CC[C@]65O)C4)O[C@@H]3C)O[C@@H]2C)O[C@@H]1C [β-methyldigoxin]
IC50: 16.7 µM
